What was measured:
[1] = molecular target: T1, Epidermal growth factor receptor (Homo sapiens, UniProt P00533); test: Inhibition of EGFR (unknown origin) incubated for 40 mins in presence of Mg/ATP mix by [gamma p33]-ATP based scintillation counting method
[2] = molecular target: Mitogen-activated protein kinase 10 (Homo sapiens, UniProt P53779); test: Inhibition of JNK3 (unknown origin) incubated for 40 mins in presence of Mg/ATP mix by [gamma p33]-ATP based scintillation counting method
Homo sapiens [3] = organism: Homo sapiens; test: Selectivity ratio of IC50 for inhibition of JNK3 (unknown origin) to IC50 for inhibition of ErbB4 (unknown origin); conditions: dose 10.0 µM, time 40.0 min
NCI-H522 = test: Antiproliferative activity against human NCI-H522 cells assessed as cell growth inhibition measured after 48 hrs by SRB assay; format: functional, cell-based; conditions: NCI-H522, 48 h
[4] = system: Serine/threonine-protein kinase B-raf (Homo sapiens), P15056 [V600E]; test: Inhibition of BRAF V600E mutant (unknown origin) at 10 uM incubated for 40 mins in presence of Mg/ATP mix by [gamma p33]-ATP based scintillation counting method relative to control
SK-MEL-5 = test: Antiproliferative activity against human SK-MEL-5 cells assessed as cell growth inhibition at 10 uM measured after 48 hrs by SRB assay relative to control; format: functional
Homo sapiens [5] = organism: Homo sapiens; test: Selectivity ratio of IC50 for inhibition of JAK3 (unknown origin) to IC50 for inhibition of ErbB4 (unknown origin); conditions: dose 10.0 µM, time 40.0 min
DU-145 [6] = test: Antiproliferative activity against human DU-145 cells assessed as cell growth inhibition measured after 48 hrs by SRB assay; format: functional, cell-based; conditions: DU-145, 48 h
WI-38 = test: Cytotoxicity against human WI-38 cells assessed as cell growth inhibition measured after 48 hrs by SRB assay; format: cell-based; conditions: WI-38, 48 h
[7] = molecular target: Tyrosine-protein kinase JAK3 (Homo sapiens) (UniProt P52333); test: Inhibition of JAK3 (unknown origin) at 10 uM incubated for 40 mins in presence of Mg/ATP mix by [gamma p33]-ATP based scintillation counting method relative to control
[8] = molecular target: T2, Receptor tyrosine-protein kinase erbB-4 (Homo sapiens, UniProt Q15303); test: Inhibition of ErbB4 (unknown origin) at 10 uM incubated for 40 mins in presence of Mg/ATP mix by [gamma p33]-ATP based scintillation counting method relative to control
T47D = test: Antiproliferative activity against human T47D cells assessed as cell growth inhibition measured after 48 hrs by SRB assay; format: functional, cell-based
OVCAR-4 = test: Antiproliferative activity against human OVCAR-4 cells assessed as cell growth inhibition at 10 uM measured after 48 hrs by SRB assay relative to control; format: functional
[9] = molecular target: T2, Receptor tyrosine-protein kinase erbB-4; test: Inhibition of ErbB4 (unknown origin) incubated for 40 mins in presence of Mg/ATP mix by [gamma p33]-ATP based scintillation counting method
HCC 2998 [10] = test: Antiproliferative activity against human HCC 2998 cells assessed as cell growth inhibition measured after 48 hrs by SRB assay; format: functional, cell-based; conditions: HCC 2998, 48 h
[11] = molecular target: Voltage-gated inwardly rectifying potassium channel KCNH2 (Homo sapiens, UniProt Q12809); test: Inhibition of human ERG incubated for 3 hrs by competitive fluorescence tracer binding based assay
[12] = molecular target: RAF proto-oncogene serine/threonine-protein kinase (Homo sapiens, UniProt P04049); test: Inhibition of RAF1 (unknown origin) at 10 uM incubated for 40 mins in presence of Mg/ATP mix by [gamma p33]-ATP based scintillation counting method relative to control
MOLT-4 = test: Antiproliferative activity against human MOLT-4 cells assessed as cell growth inhibition at 10 uM measured after 48 hrs by SRB assay relative to control; format: functional
hERG (KCNH2) = hERG (KCNH2) (Homo sapiens, UniProt Q12809); test: Safety index, ratio of test compound IC50 to E-4031 IC50 for inhibition of human ERG incubated for 3 hrs by competitive fluorescence tracer binding based assay; conditions: read-out: Ratio IC50
HCC 2998 [13] = test: Antiproliferative activity against human HCC 2998 cells assessed as cell growth inhibition at 10 uM measured after 48 hrs by SRB assay relative to control; format: functional
[14] = molecular target: T2, Receptor tyrosine-protein kinase erbB-4; test: Inhibition of ErbB4 in human T47D cells assessed as suppression of neuregulin 1-induced autophosphorylation incubated for 90 mins by sandwich ELISA; format: cell-based
[15] = system: Panel NCI-60 (60 carcinoma cell lines); test: Growth inhibition of human panel NCI-60 (60 carcinoma cells) assessed as growth percent at 10 uM measured after 48 hrs by SRB assay relative to control; format: functional; conditions: read-out: Activity
[16] = molecular target: T2, Receptor tyrosine-protein kinase erbB-4; test: Potency index, ratio of staurosporine IC50 to test compound IC50 for inhibition of ErbB4 (unknown origin) at 10 uM incubated for 40 mins in presence of Mg/ATP mix by [gamma p33]-ATP based scintillation counting method
[17] = molecular target: T1, Epidermal growth factor receptor; test: Inhibition of EGFR (unknown origin) at 10 uM incubated for 40 mins in presence of Mg/ATP mix by [gamma p33]-ATP based scintillation counting method relative to control
[18] = molecular target: T2, Receptor tyrosine-protein kinase erbB-4; test: Inhibition of ErbB4 expressed in human T47D cells at antiproliferative IC50 in presence of -neuregulin 1 incubated for 90 mins by sandwich ELISA relative to control; format: cell-based
UO-31 = test: Antiproliferative activity against human UO-31 cells assessed as cell growth inhibition at 10 uM measured after 48 hrs by SRB assay relative to control; format: functional
[19] = molecular target: Serine/threonine-protein kinase B-raf (Homo sapiens, UniProt P15056); test: Inhibition of wild type B-RAF (unknown origin) at 10 uM incubated for 40 mins in presence of Mg/ATP mix by [gamma p33]-ATP based scintillation counting method relative to control
Homo sapiens [20] = organism: Homo sapiens; test: Selectivity index, ratio of IC50 for inhibition of BRAF V600E mutant (unknown origin) to IC50 for inhibition of ErbB4 (unknown origin); conditions: dose 10.0 µM, time 40.0 min
U-251 = test: Antiproliferative activity against human U-251 cells assessed as cell growth inhibition measured after 48 hrs by SRB assay; format: functional, cell-based; conditions: U-251, 48 h
DU-145 [21] = test: Antiproliferative activity against human DU-145 cells assessed as cell growth inhibition at 10 uM measured after 48 hrs by SRB assay relative to control; format: functional
[22] = molecular target: Fibroblast growth factor receptor 1 (Homo sapiens) (UniProt P11362); test: Inhibition of FGFR1 (unknown origin) at 10 uM incubated for 40 mins in presence of Mg/ATP mix by [gamma p33]-ATP based scintillation counting method relative to control
[23] = molecular target: Vascular endothelial growth factor receptor 2 (Homo sapiens, UniProt P35968); test: Inhibition of KDR (unknown origin) at 10 uM incubated for 40 mins in presence of Mg/ATP mix by [gamma p33]-ATP based scintillation counting method relative to control
CYP3A4 = CYP3A4 (Homo sapiens, UniProt P08684); test: Potency index, ratio of test compound IC50 to ketoconazole IC50 for inhibition of CYP3A4 (unknown origin) using BOMCC as a substrate incubated for 20 mins by fluorescence based analysis; format: ADME; conditions: probe BOMCC

T2 sequence (Q15303 whole entry): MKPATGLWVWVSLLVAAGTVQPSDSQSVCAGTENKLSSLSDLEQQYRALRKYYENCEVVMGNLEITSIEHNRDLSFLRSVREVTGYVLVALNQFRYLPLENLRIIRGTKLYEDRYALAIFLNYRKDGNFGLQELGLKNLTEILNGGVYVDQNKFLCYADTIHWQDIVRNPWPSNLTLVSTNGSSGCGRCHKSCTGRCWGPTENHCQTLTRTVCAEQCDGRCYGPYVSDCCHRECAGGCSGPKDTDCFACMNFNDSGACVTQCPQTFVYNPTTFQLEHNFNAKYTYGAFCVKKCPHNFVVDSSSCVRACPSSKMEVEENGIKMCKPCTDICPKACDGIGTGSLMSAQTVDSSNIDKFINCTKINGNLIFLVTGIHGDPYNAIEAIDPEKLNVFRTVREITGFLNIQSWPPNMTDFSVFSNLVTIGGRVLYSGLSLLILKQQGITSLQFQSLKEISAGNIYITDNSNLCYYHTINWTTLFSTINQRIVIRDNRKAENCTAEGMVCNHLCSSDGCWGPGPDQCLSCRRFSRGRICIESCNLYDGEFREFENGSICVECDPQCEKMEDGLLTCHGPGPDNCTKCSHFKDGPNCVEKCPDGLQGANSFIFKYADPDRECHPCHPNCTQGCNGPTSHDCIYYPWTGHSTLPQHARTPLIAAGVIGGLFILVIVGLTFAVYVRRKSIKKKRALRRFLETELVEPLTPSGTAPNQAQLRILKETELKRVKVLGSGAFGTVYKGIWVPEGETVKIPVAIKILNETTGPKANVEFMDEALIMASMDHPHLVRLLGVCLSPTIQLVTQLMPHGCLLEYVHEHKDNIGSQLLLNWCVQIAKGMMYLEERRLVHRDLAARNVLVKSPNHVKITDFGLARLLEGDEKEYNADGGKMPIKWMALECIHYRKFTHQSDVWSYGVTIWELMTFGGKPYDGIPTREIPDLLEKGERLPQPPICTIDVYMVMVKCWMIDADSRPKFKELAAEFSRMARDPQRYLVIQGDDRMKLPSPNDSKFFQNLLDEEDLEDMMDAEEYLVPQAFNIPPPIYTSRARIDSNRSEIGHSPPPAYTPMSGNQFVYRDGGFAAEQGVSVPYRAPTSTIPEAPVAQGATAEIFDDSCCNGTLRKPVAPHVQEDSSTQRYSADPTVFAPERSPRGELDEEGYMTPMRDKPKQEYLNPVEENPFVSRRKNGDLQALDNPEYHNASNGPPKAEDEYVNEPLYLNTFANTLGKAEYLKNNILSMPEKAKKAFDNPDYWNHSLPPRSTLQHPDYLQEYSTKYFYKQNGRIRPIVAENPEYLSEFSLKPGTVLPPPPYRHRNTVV
T1 sequence (P00533 whole entry): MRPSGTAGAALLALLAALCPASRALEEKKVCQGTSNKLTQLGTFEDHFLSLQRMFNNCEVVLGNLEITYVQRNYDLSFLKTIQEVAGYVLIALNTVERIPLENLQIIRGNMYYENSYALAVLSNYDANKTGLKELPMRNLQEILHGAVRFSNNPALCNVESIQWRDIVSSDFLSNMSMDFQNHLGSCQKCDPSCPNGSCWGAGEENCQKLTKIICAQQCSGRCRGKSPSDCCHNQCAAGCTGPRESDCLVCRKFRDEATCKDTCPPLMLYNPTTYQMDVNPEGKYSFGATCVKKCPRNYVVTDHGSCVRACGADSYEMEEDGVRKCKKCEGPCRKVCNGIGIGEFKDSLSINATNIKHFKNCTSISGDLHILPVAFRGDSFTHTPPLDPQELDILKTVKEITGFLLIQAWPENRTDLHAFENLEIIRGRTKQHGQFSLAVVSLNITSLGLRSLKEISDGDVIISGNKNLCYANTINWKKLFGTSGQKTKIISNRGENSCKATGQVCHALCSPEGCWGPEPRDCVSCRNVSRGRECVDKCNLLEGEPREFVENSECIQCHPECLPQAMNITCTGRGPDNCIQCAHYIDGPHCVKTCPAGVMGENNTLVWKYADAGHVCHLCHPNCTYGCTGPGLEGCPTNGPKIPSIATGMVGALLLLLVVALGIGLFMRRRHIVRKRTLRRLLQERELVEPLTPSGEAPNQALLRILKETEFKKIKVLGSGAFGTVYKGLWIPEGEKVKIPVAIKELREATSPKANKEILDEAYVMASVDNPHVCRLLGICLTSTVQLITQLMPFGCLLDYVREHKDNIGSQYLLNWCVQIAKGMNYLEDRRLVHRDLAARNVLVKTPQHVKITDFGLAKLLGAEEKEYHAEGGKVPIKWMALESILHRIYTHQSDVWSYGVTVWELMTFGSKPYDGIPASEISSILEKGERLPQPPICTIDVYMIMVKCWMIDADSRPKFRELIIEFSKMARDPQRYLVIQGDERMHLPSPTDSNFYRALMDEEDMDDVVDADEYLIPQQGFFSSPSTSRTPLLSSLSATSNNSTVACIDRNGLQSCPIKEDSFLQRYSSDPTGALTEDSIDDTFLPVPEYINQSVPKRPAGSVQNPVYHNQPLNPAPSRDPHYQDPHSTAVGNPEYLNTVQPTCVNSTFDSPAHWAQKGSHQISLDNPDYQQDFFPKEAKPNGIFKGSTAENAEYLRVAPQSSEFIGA
Chain of hERG (KCNH2) (Q12809 whole entry): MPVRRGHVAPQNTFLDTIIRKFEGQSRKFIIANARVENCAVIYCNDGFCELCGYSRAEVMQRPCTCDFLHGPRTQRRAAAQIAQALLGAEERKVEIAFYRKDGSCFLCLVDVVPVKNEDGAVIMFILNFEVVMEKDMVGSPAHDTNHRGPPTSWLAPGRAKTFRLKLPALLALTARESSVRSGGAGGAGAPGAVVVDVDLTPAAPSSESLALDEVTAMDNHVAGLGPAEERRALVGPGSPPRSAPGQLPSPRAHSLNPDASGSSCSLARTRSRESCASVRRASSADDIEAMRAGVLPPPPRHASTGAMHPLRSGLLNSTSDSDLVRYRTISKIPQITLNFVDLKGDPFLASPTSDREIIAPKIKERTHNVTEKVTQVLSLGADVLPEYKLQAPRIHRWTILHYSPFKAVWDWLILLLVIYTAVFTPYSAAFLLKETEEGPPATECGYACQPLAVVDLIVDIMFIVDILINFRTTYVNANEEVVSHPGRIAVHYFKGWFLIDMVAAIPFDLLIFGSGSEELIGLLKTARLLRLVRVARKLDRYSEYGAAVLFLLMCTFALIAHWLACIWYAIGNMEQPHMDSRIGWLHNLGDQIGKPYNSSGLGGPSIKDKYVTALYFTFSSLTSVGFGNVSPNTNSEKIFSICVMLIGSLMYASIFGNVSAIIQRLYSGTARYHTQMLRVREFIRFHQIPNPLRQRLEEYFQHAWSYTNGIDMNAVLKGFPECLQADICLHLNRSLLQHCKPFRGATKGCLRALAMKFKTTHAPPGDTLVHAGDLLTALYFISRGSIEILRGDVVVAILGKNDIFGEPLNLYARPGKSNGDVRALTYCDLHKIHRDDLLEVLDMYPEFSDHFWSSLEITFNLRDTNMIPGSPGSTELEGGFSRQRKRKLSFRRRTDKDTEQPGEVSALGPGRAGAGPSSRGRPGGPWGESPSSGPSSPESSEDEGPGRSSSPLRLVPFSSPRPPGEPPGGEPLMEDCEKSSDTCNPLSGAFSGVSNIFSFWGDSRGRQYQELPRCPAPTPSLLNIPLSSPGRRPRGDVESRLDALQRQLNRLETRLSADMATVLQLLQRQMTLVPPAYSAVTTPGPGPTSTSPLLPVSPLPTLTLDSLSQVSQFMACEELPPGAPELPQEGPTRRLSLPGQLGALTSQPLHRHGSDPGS
Chain of Voltage-gated inwardly rectifying potassium channel KCNH2 (Q12809 whole entry): as above

CS(=O)(=O)c1nccc(-c2c(-c3cccc(OCc4ccccc4)c3)nc3sccn23)n1
IC50 [1]: 9.92 µM | IC50 [2]: 5.2 µM | Ratio IC50 (Homo sapiens [3]): 341 | IC50 (NCI-H522): 4.91 µM | inhibition [4]: 62.1% | inhibition at 10 µM (SK-MEL-5): 99.9% | Ratio IC50 (Homo sapiens [5]): 548 | IC50 (DU-145 [6]): 1.67 µM | IC50 (WI-38): 8.54 µM | inhibition [7]: 77.5% | inhibition [8]: 96.1% | IC50 (T47D): 4.08 µM | inhibition at 10 µM (OVCAR-4): 26.2% | IC50 [9]: 0.0152 µM | IC50 (HCC 2998 [10]): 1.78 µM | IC50 [11]: 12.4 µM | inhibition [12]: 23% | inhibition at 10 µM (MOLT-4): 73.5% | selectivity ratio at 3 h (hERG (KCNH2)): 513 | inhibition at 10 µM (HCC 2998 [13]): 67.6% | IC50 [14]: 0.0033 µM | growth at 10 µM [15]: 63.4% | Ratio IC50 [16]: 9 | inhibition [17]: 63.6% | inhibition [18]: > 50% | inhibition at 10 µM (UO-31): 96.3% | inhibition [19]: 34.3% | Ratio IC50 (Homo sapiens [20]): 866 | IC50 (U-251): 6.08 µM | inhibition at 10 µM (DU-145 [21]): 160% | inhibition [22]: 3.33% | inhibition [23]: 24.8% | selectivity ratio at 20 min (CYP3A4): 7480

Reference: ChEMBL document CHEMBL4831500, “Discovery of first-in-class imidazothiazole-based potent and selective ErbB4 (HER4) kinase inhibitors” (Eur J Med Chem, 2021)
